Assay results as given in patent US9975874B2, “Factor XIa inhibitors” (Merck Sharp & Dohme Corp., priority 2014, dated 2018).
Like-named read-outs stand apart in the source and are kept apart here.

Assays:
[1] = target: purified Human plasma kallikrein (Homo sapiens (Human), UniProt P03952); experiment: Kallikrein Assay; type: biochemical
Method: (§1) The effectiveness of a compound of the present invention as an inhibitor of Kallikrein can be determined using a relevant purified serine protease, and an appropriate synthetic substrate. The rate of hydrolysis of the chromogenic or fluorogenic substrate by the relevant serine protease was measured both in the absence and presence of compounds of the present invention. Assays were conducted at room temperature or at 37° C. […] A decrease in the rate of fluorescence change in the presence of inhibitor is indicative of enzyme inhibition. Such methods are known to one skilled in the art. The results of this assay are expressed as the inhibitory constant, Ki.
Kallikrein determinations were made in 50 mM HEPES buffer at pH 7.4 containing 150 mM NaCl, 5 mM CaCl2, and 0.1% PEG 8000 (polyethylene glycol; Fisher Scientific). Determinations were made using purified Human plasma kallikrein at a final concentration of 0.5 nM (Enzyme Research Laboratories) and the synthetic substrate, Acetyl-K-P-R-AFC (Sigma # C6608) at a concentration of […].
Times required to achieve equilibration between enzyme and inhibitor were determined in control experiments. The reactions were performed under linear progress curve conditions and fluorescence increase measured at 405 Ex/510 Em nm. […] IC50 was determined by inflection point from a four parameter logistic curve fit. Ki was calculated using the Cheng Prusoff equation, Ki=IC50/(1+([S]/Km)).

[2] = target: purified human Factor XIa (Homo sapiens (Human), UniProt P03951); experiment: Factor XIa Assay; type: biochemical
Method: as §1, with “Coagulation Factor XIa” for “Kallikrein”, “The results of this assay are expressed as the inhibitory constant, Ki.” left out
Factor XIa determinations were made in 50 mM HEPES buffer at pH 7.4 containing 150 mM NaCl, 5 mM CaCl2, and 0.1% PEG 8000 (polyethylene glycol; JT Baker or Fisher Scientific). Determinations were made using purified human Factor XIa at a final concentration of 40 pM (Sekisui Diagnostics) and the synthetic substrate, Z-Gly-Pro-Arg-AFC, TFA salt (Sigma #C0980) at a concentration of 100 μM.
Times required to achieve equilibration between enzyme and inhibitor were determined in control experiments. Initial velocities of product formation in the absence (Vo) or presence of inhibitor (Vi) were measured. Assuming competitive inhibition, and that unity is negligible compared Km/[S], [I]/e, and [I]/e (where [S], [I], and e respectively represent the total concentrations, of substrate, inhibitor and enzyme), the equilibrium constant (Ki) for dissociation of the inhibitor from the enzyme can be obtained from the dependence of Vo/Vi on [I] shown in the following equation.

[3] = Plasma kallikrein, substrate Acetyl-K-P-R-AFC, 0.5 nM enzyme, pH 7.4, read-out: PK IC50
[4] = substrate Z-Gly-Pro-Arg-AFC 100 μM, 40 pM enzyme, pH 7.4, read-out: FXIa IC50

Chain of purified human Factor XIa (P03951 388-625): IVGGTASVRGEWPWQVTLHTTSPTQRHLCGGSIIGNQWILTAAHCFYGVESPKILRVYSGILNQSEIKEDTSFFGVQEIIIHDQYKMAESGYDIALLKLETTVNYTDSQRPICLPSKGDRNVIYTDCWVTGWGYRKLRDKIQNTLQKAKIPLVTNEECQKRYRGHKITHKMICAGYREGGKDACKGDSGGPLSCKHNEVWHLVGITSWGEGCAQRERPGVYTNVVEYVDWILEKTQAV
Chain of purified human Factor XIa (P03951 19-387 partner): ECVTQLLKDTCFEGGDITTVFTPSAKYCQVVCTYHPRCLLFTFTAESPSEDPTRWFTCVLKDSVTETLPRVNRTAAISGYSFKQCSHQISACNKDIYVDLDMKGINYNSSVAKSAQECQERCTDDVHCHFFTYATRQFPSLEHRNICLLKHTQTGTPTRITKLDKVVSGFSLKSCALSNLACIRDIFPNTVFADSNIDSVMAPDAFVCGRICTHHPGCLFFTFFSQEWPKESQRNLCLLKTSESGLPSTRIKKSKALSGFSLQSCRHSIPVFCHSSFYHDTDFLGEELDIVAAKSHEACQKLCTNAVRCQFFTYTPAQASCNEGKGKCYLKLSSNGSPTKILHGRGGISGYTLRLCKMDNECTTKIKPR
Chain of purified Human plasma kallikrein (P03952 391-638): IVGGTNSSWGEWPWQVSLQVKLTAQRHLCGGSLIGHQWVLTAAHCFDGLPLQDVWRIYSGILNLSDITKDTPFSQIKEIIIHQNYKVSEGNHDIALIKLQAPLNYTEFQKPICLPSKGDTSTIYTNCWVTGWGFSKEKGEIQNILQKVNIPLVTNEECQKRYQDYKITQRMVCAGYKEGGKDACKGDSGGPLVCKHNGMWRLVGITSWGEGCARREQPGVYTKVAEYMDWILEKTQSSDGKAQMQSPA
Chain of purified Human plasma kallikrein (P03952 20-390 partner): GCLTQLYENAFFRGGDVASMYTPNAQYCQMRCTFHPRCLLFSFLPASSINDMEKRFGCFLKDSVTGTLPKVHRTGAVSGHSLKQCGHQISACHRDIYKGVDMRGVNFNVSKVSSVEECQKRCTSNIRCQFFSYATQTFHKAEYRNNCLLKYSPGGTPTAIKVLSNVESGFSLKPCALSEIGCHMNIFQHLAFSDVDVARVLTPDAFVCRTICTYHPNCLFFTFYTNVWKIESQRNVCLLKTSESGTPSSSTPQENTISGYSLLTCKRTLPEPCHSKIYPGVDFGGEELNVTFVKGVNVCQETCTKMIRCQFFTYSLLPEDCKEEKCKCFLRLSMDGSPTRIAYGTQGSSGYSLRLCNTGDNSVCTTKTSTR

SMILES	IC50 [1, 3]	IC50 [2, 4]	IC50 [1]	IC50 [2]
CCNC(=O)N1CCC(c2cccc(C(Cc3ccccc3)c3ccc(-c4cc(Cl)ccc4-n4cnnn4)c[n+]3[O-])c2)CC1 (racemic) [Example 24, 4-[3-(1-{5-[5-chloro-2-(1H-tetrazol-1-yl)phenyl]-1-oxidopyridin-2-yl}-2-phenylethyl)phenyl]-N-ethylpiperidine-1-carboxamide]	714 nM	19 nM	–	–
O=C(O)c1cccc(-c2cccc([C@@H](Cc3ccccc3)c3ccc(-c4cc(Cl)ccc4-n4cnnn4)c[n+]3[O-])c2)c1 (stereo in doubt) [Example 8, 2-(1-(3′-carboxy-[1,1′-biphenyl]-3-yl)-2-phenylethyl)-5-(5-chloro-2-(1H-tetrazol-1-yl)phenyl)pyridine 1-oxide]	6920 nM	41 nM	–	–
O=C(O)c1cccc(-c2cccc([C@H](Cc3ccccc3)c3ccc(-c4cc(Cl)ccc4-n4cnnn4)c[n+]3[O-])c2)c1 (stereo in doubt) [Example 9, 2-(1-(3′-carboxy-[1,1′-biphenyl]-3-yl)-2-phenylethyl)-5-(5-chloro-2-(1H-tetrazol-1-yl)phenyl)pyridine 1-oxide]	24.9 nM	0.267 nM	–	–
CS(=O)(=O)c1ccc(-c2cccc(C(Cc3ccccc3)c3ccc(-c4cc(Cl)ccc4-n4cnnn4)c[n+]3[O-])c2)cc1 (stereo not shown) [Example 4]	4660 nM	38.9 nM	–	–
O=C(O)c1cccc(-c2cc(F)cc([C@H](Cc3ccccc3)c3ccc(-c4cc(Cl)ccc4-n4cnnn4)c[n+]3[O-])c2)c1 [Example 14]	19.1 nM	0.301 nM	–	–
O=C(O)c1cccc(-c2cccc(C(CC3CC3)c3ccc(-c4cc(Cl)ccc4-n4cnnn4)c[n+]3[O-])c2)c1 (stereo not shown) [Example 18]	250 nM	12 nM	–	–
O=C(C1CC1(F)F)N1CCC(c2cccc([C@H](Cc3ccccc3)c3ccc(-c4cc(Cl)ccc4-n4cnnn4)c[n+]3[O-])c2)CC1 (stereo partly drawn) [Example 30, 5-[5-chloro-2-(1H-tetrazol-1-yl)phenyl]-2-[(1S)-1-(3-{1-[(2,2-difluoro-cyclopropyl)carbonyl]piperidin-4-yl}phenyl)-2-phenylethyl] pyridine 1-oxide]	820 nM	28.6 nM	–	–
O=C1CC(C(=O)N2CCC(c3cccc([C@H](Cc4ccccc4)c4ccc(-c5cc(Cl)ccc5-n5cnnn5)c[n+]4[O-])c3)CC2)C1 [Example 32, 3-[(4-{3-[(1S)-1-{5-[5-chloro-2-(1H-tetrazol-1-yl)phenyl]-1-oxidopyridin-2-yl}-2-phenylethyl]phenyl}piperidin-1-yl)carbonyl] cyclobutanone]	324 nM	11.1 nM	–	–
O=C(C1CC1)N1CCC(c2cccc([C@H](Cc3ccccc3)c3ccc(-c4cc(Cl)ccc4-n4cnnn4)c[n+]3[O-])c2)CC1 [Example 34, 5-[5-chloro-2-(1H-tetrazol-1-yl)phenyl]-2-[(1S)-1-{3-[1-(cyclopropyl-carbonyl)piperidin-4-yl]phenyl}-2-phenylethyl] pyridine 1-oxide]	371 nM	10.6 nM	–	–
O=C(C1CCO1)N1CCC(c2cccc([C@H](Cc3ccccc3)c3ccc(-c4cc(Cl)ccc4-n4cnnn4)c[n+]3[O-])c2)CC1 (stereo partly drawn) [Example 35, 5-[5-chloro-2-(1H-tetrazol-1-yl)phenyl]-2-[(1S)-1-{3-[1-(oxetan-2-ylcarbonyl)piperidin-4-yl]phenyl}-2-phenylethyl] pyridine 1-oxide]	403 nM	12.2 nM	–	–
O=C(CF)N1CCC(c2cccc([C@H](Cc3ccccc3)c3ccc(-c4cc(Cl)ccc4-n4cnnn4)c[n+]3[O-])c2)CC1 [Example 38, 5-[5-chloro-2-(1H-tetrazol-1-yl)phenyl]-2-[(1S)-1-{3-[1-(fluoroacetyl)piperidin-4-yl]phenyl}-2-phenylethyl] pyridine 1-oxide]	–	–	322 nM	10.9 nM
NC(=O)C(=O)N1CCC(c2cccc([C@H](Cc3ccccc3)c3ccc(-c4cc(Cl)ccc4-n4cnnn4)c[n+]3[O-])c2)CC1 [Example 39, 2-(4-{3-[(1S)-1-{5-[5-chloro-2-(1H-tetrazol-1-yl)phenyl]-1-oxidopyridin-2-yl}-2-phenylethyl]phenyl}piperidin-1-yl)-2-oxoacetamide]	113 nM	9.95 nM	–	–
O=C(C1COC1)N1CCC(c2cccc([C@H](Cc3ccccc3)c3ccc(-c4cc(Cl)ccc4-n4cnnn4)c[n+]3[O-])c2)CC1 [Example 40]	413 nM	11.8 nM	–	–

The remaining molecules from weak to strong by IC50 [1, 3], led by results:

IC50 [1, 3]	IC50 [2, 4]	SMILES	IC50 [1]	IC50 [2]
1110 nM	31.1 nM	CS(=O)(=O)c1ccc(-c2cccc([C@H](Cc3ccccc3)c3ccc(-c4cc(Cl)ccc4-n4cnnn4)c[n+]3[O-])c2)cc1 [Example 6]	–	–
879 nM	20.1 nM	O=C(NC1CCCC1)N1CCC(c2cccc([C@H](Cc3ccccc3)c3ccc(-c4cc(Cl)ccc4-n4cnnn4)c[n+]3[O-])c2)CC1 [Example 47, 4-{3-[(1S)-1-{5-[5-chloro-2-(1H-tetrazol-1-yl)phenyl]-1-oxidopyridin-2-yl}-2-phenylethyl]phenyl}-N-cyclopentyl piperidine-1-carboxamide]	–	–
659 nM	43.9 nM	COCCOC(=O)N1CCC(c2cccc([C@H](Cc3ccccc3)c3ccc(-c4cc(Cl)ccc4-n4cnnn4)c[n+]3[O-])c2)CC1 [Example 45, 2-methoxyethyl 4-{3-[(1S)-1-{5-[5-chloro-2-(1H-tetrazol-1-yl)phenyl]-1-1-oxidopyridin-2-yl}-2-phenylethyl]phenyl} piperidine-1-carboxylate]	–	–
382 nM	8.17 nM	COCC(=O)N1CCC(c2cccc([C@H](Cc3ccccc3)c3ccc(-c4cc(Cl)ccc4-n4cnnn4)c[n+]3[O-])c2)CC1 [Example 36, 5-[5-chloro-2-(1H-tetrazol-1-yl)phenyl]-2-[(1S)-1-{3-[1-(methoxyacetyl)piperidin-4-yl]phenyl}-2-phenylethyl] pyridine 1-oxide]	–	–
376 nM	11.2 nM	COCCC(=O)N1CCC(c2cccc([C@H](Cc3ccccc3)c3ccc(-c4cc(Cl)ccc4-n4cnnn4)c[n+]3[O-])c2)CC1 [Example 33, 5-[5-chloro-2-(1H-tetrazol-1-yl)phenyl]-2-[(1S)-1-{3-[1-(3-methoxy-propanoyl)piperidin-4-yl]phenyl}-2-phenylethyl] pyridine 1-oxide]	–	–
336 nM	10.8 nM	O=C(C1CCCO1)N1CCC(c2cccc([C@H](Cc3ccccc3)c3ccc(-c4cc(Cl)ccc4-n4cnnn4)c[n+]3[O-])c2)CC1 (stereo partly drawn) [Example 31, 5-[5-chloro-2-(1H-tetrazol-1-yl)phenyl]-2-[(1S)-2-phenyl-1-{3-[1-(tetrahydrofuran-2-ylcarbonyl)piperidin-4-yl]phenyl}ethyl] pyridine 1-oxide]	–	–
276 nM	14 nM	O=C(O)c1ccc(-c2cccc(C(Cc3ccccc3)c3ccc(-c4cc(Cl)ccc4-n4cnnn4)c[n+]3[O-])c2)cc1 (single isomer, unassigned) [Example 11]	–	–
271 nM	7.25 nM	CCNC(=O)N1CCC(c2cccc([C@H](Cc3ccccc3)c3ccc(-c4cc(Cl)ccc4-n4cnnn4)c[n+]3[O-])c2)CC1 [Example 28, 4-{3-[(1S)-1-{5-[5-chloro-2-(1H-tetrazol-1-yl)phenyl]-1-oxidopyridin-2-yl}-2-phenylethyl]phenyl}-N-ethylpiperidine-1-carboxamide]	–	–
178 nM	3.34 nM	NC(=O)c1cccc(-c2cc(F)cc([C@H](Cc3ccccc3)c3ccc(-c4cc(Cl)ccc4-n4cnnn4)c[n+]3[O-])c2)c1 [Example 16]	–	–
34.3 nM	2.07 nM	COC(=O)Nc1ccc(-c2cccc([C@H](Cc3ccccc3)c3ccc(-c4cc(Cl)ccc4-n4cnnn4)c[n+]3[O-])c2)cc1 [Example 3, (S)-5-(5-Chloro-2-(1H-tetrazol-1-yl)phenyl)-2-(1-(4′-((methoxycarbonyl)amino)-[1,1′-biphenyl]-3-yl)-2-phenylethyl)pyridine 1-oxide]	–	–
